Assay results: ChEMBL document CHEMBL4414642, “Buxaustroines A-N, a Series of 17(13→18)abeo-Cycloartenol Triterpenoidal Alkaloids from Buxus austro-yunnanensis and Their Cardioprotective Activities” (J Nat Prod, 2019)
Active and inactive are the calls of the source. The calls are words filed in the database; no cut-off is given here.

Experiments:
H9c2 [1] = experiment: Cardioprotective activity against rat H9c2 cells assessed as inhibition of doxorubicin-induced reduction in cell viability at 0.5 uM preincubated for 30 mins followed by doxorubicin treatment and measured after 48 hrs by CCK8 assay; format: functional, cell-based
H9c2 [2] = experiment: Cytotoxicity against rat H9c2 cells at 1 uM after 48 hrs by CCK-8 assay; format: cell-based; settings: h9c2, 48 h
H9c2 [3] = experiment: Cardioprotective activity against rat H9c2 cells assessed as inhibition of doxorubicin-induced reduction in cell viability at 1 uM preincubated for 30 mins followed by doxorubicin treatment and measured after 48 hrs by CCK8 assay; format: functional, cell-based

Row | SMILES | Activity (H9c2 [1]) | Activity (H9c2 [2]) | Activity (H9c2 [3])
1 | CCC1=C[C@H]2CC[C@@]34C[C@]35CC[C@H](NC)[C@@H](C)[C@@H]5CC[C@H]4[C@]2(C)CC1=O | Active | Non-Toxic | –
2 | C=C1[C@@H](N(C)C)CC[C@@]23C[C@]24CC[C@]2(O)C[C@H](CC)C(=O)C[C@@]2(C)[C@@H]4CC[C@@H]13 | inactive | Non-Toxic | inactive
3 | CN[C@@H](C)[C@H]1[C@H](O)C[C@@]2(C)[C@@H]3CC[C@H]4C(C)(C)[C@@H](NC)CC[C@]45C[C@@]35CC[C@]12C | – | Non-Toxic | Active
4 | C=C1[C@@H](NC)CC[C@@]23C[C@]24CC=C2C=C(CC)C(=O)C[C@@]2(C)[C@@H]4CC[C@@H]13 | Active | Non-Toxic | –
5 | CCC1=CC2=CC[C@@]34C[C@]35CC[C@H](NC)C(C)(C)[C@@H]5CC[C@H]4[C@]2(C)CC1=O | Active | Non-Toxic | –
6 | CC[C@H]1C[C@@]2(O)CC[C@@]34C[C@]35CC[C@H](NC)C(C)(C)[C@@H]5CC[C@H]4[C@]2(C)CC1=O | inactive | Non-Toxic | inactive
7 | C=C1[C@@H](NC)CC[C@@]23C[C@]24CCC2=C[C@](O)(CC)C(=O)C[C@@]2(C)[C@@H]4CC[C@@H]13 | – | Non-Toxic | –
8 | C=C1[C@@H](N(C)C)CC[C@@]23C[C@]24CC[C@]2(O)C=C(CC)C(=O)C[C@@]2(C)[C@@H]4CC[C@@H]13 | inactive | Non-Toxic | inactive
9 | CCC1=C[C@@]2(O)CC[C@@]34C[C@]35CC[C@H](NC)C(C)(C)[C@@H]5C=C[C@H]4[C@]2(C)CC1=O | inactive | Non-Toxic | inactive
10 | CCC1=C[C@H]2CC[C@@]34C[C@]35CC[C@H](N(C)C)[C@@H](C)[C@@H]5CC[C@H]4[C@]2(C)CC1=O | Active | Non-Toxic | Active
11 | CCC1=C[C@H]2CC[C@@]34C[C@]35CC[C@H](NC)C(C)(C)[C@@H]5C[C@H](OC(C)=O)[C@H]4[C@]2(C)CC1=O | – | Non-Toxic | –
12 | C=C1[C@@H](NC)CC[C@@]23C[C@]24CC[C@@H]2C=C(CC)C(=O)C[C@@]2(C)[C@@H]4CC[C@@H]13 | Active | Non-Toxic | –
13 | CC[C@H]1C=C2CC[C@@]34C[C@]35CC[C@H](NC)C(C)(C)[C@@H]5C=C[C@H]4[C@]2(C)C[C@@H]1O | – | Non-Toxic | –
14 | CCC1=C[C@H]2CC[C@@]34C[C@]35CC[C@H](NC)C(C)(C)[C@@H]5C=C[C@H]4[C@]2(C)CC1=O | Active | Non-Toxic | –
15 | C/C=C1/C(=O)C[C@@]2(C)[C@@H]3CC[C@H]4C(C)(C)[C@@H](NC)CC[C@]45C[C@@]35CC[C@]12C | Active | Non-Toxic | –
16 | C=C1[C@@H](NC)CC[C@@]23C[C@]24CC[C@]2(O)C[C@H](CC)C(=O)C[C@@]2(C)[C@@H]4CC[C@@H]13 | inactive | Non-Toxic | inactive
